Results taken from paper PMC7118210 (Frontiers in Pharmacology, 2020).

Key:
[1] = design: method as in Li P. et al., 2013; settings: Sprague-Dawley rats, 16 g kg^-1; ref Li P. et al., 2013; cited from earlier work
CYP 2C9 = biological target: T1, CYP 2C9 (Homo sapiens, UniProt P11712); assay: CYP enzyme pathway, human liver microsomes with sulfaphenazole (system III-human); format: in vitro ADME; settings: CYP2C9, major metabolic enzyme; of six metabolites measured in system III-human
T1 construct: human liver microsomes (2.25 μl); tissue RILD Research Institute for Live Diseases (Shanghai, China) Co.Ltd; host or cells: human liver microsomes, 10-donor pooled
T1 sequence (P11712 whole entry): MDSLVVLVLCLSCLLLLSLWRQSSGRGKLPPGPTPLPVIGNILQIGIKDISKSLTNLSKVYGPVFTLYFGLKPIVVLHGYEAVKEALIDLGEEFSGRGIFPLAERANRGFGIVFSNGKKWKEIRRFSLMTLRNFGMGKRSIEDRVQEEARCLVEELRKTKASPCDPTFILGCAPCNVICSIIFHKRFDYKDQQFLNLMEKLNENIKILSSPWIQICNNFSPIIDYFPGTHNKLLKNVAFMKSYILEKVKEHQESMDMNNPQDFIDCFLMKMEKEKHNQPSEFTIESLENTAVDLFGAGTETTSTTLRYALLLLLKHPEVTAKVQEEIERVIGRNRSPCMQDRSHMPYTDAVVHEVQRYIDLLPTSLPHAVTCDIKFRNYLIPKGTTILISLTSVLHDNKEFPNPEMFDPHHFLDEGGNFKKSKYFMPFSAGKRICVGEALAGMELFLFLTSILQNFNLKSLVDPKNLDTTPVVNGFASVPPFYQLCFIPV
Procedure: (§1) Five single inhibitor working solutions were separately added. Their concentrations were as follows: α-naphthoflavone (0.04 mM) for CYP 1A2, sulfaphenazole (0.8 mM) for CYP 2C9, (+/-)-N-3-benzylnirvanol (0.8 mM) for CYP 2C19, quinidine (0.08 mM) for CYP 2D6, and ketoconazole (0.04 mM) for CYP 3A4/5. All protein concentrations were 0.15 mg ml^-1 in the incubation system, except 0.3 mg ml^-1 for the sulfaphenazole working solution. Then, NADPH (10 mM, 30 μl) was added and the mixed solution incubated for 45 min. Finally, cold acetonitrile (600 μl, containing 100 ng ml^-1 flufenamic acid) was added to every tube, mixed by vortexing, centrifuged for 30 min at 14,000 g and 4°C, and the supernatants transferred into centrifuge tubes and injected into the UHPLC/MS/MS system as described above. Incubations were run in triplicate experiments.
(§2) To analyze compounds in incubation system III-human, a Luna C18 column (Phenomenex Inc., Torrance, CA, USA; 2.0 mm × 50 mm, 5 μm) was used at 40°C. The mobile phase consisted of 0.1% formic acid (v/v) in water (A) and 0.1% formic acid in acetonitrile (B). […] The injection volume was 10 μl with flow rate of 0.2 ml min^-1. The compounds were detected by multiple reaction monitoring in the negative ion electrospray mode.

CYP 2C19 = biological target: T2, CYP 2C19 (Homo sapiens, UniProt P33261); assay: CYP enzyme pathway, human liver microsomes with (+/-)-N-3-benzylnirvanol (system III-human); format: in vitro ADME; settings: CYP2C19; of six metabolites measured in system III-human
T2 construct: human liver microsomes (2.25 μl); tissue RILD Research Institute for Live Diseases (Shanghai, China) Co.Ltd; host or cells: human liver microsomes, 10-donor pooled
T2 sequence (P33261 whole entry): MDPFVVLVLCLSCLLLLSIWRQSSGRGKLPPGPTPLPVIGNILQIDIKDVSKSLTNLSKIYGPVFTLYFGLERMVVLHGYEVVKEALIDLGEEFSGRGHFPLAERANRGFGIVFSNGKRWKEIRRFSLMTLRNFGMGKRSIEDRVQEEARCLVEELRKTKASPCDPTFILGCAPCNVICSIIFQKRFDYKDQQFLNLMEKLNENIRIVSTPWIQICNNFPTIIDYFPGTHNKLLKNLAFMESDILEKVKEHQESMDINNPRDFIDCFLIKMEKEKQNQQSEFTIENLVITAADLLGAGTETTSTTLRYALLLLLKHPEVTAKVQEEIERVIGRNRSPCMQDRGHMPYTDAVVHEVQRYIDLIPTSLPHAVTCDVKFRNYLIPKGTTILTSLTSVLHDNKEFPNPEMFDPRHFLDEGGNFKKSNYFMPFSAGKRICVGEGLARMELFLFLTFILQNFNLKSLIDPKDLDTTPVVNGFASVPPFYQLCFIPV
Procedure: as §1, §2

CYP 1A2 = biological target: T3, CYP 1A2 (Homo sapiens, UniProt P05177); assay: CYP enzyme pathway, human liver microsomes with α-naphthoflavone (system III-human); format: in vitro ADME; settings: CYP1A2; of six metabolites measured in system III-human
T3 construct: human liver microsomes (2.25 μl); tissue RILD Research Institute for Live Diseases (Shanghai, China) Co.Ltd; host or cells: human liver microsomes, 10-donor pooled
T3 sequence (P05177 whole entry): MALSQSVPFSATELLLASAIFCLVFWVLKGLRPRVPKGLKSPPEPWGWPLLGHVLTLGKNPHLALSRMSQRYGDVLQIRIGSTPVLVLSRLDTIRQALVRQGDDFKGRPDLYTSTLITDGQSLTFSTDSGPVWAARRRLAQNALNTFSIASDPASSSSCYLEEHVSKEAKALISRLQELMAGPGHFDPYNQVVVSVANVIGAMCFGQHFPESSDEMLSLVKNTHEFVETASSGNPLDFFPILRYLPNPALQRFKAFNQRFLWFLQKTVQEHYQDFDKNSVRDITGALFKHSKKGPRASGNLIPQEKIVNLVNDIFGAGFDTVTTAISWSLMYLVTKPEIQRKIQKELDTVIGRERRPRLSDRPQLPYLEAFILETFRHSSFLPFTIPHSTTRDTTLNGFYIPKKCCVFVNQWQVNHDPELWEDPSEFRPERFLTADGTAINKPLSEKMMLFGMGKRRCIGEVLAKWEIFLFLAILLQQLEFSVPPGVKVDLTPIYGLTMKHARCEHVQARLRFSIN
Procedure: as §1, §2

CYP 3A4/5 = assay: CYP enzyme pathway, human liver microsomes with ketoconazole (system III-human); format: in vitro ADME; settings: CYP3A4/5; of six metabolites measured in system III-human
Procedure: as §1, §2

[2] = design: method as in Liu M. et al., 2011; Li et al., 2014; settings: Sprague-Dawley rats, 1,250 mg kg^-1 day^-1 for 184 days; ref Liu M. et al., 2011; Li et al., 2014; cited from earlier work
[3] = Metabolites in rat kidney microsomes (system III-rat); format: in vitro ADME, Sprague-Dawley rat
Procedure: Then, NADPH-B (10 μl) was added and incubated for 2 h. […] Then, UDPGA (50 μl) was added and incubated for 2 h. […] Then, UDPGA (50 μl) was added and incubated for 2 h. In addition, the naringenin solution (1 mM, 10 μl) was evaluated in rat systems I, II, and III as above.
The incubated solution (500 μl) of systems I-rat, II-rat, III-rat, I-human, and II-human were extracted with ethyl acetate (500 μl) for at least 3 min by vortexing and centrifuged for 10 min at 13,000 rpm and 4°C. The extraction process described above was performed twice and all supernatants were transferred into centrifuge tubes, dried with N2, and dissolved with methanol-water (1:1, v/v). All samples were injected into a UPLC/Q-TOF-MS system consisting of a Waters Acquity ultra performance liquid chromatography (UPLC) coupled with a Micromass micro™ quadrupole time-of-flight mass spectrometry (Q-TOF-MS) system (Waters Corp., Milford, MA, USA), equipped with an electrospray ionization source, and controlled by the MassLynx (v. 4.1) software. Separation was performed on a Waters Acquity UPLC BEH C18 column (50 mm × 2.1 mm, 1.7 μm) at 40°C. […] Compounds were detected with accurate mass using leucine enkephalin for mass correction at 554.2615 (m/z) in negative ionization mode.

[4] = Metabolites in human liver microsomes (systems I-human, II-human); format: in vitro ADME
Procedure: Then, NADPH-B (10 μl) was added and the mixed solution incubated for 2 h. […] Next, UDPGA (50 μl) was added and the mixed solution incubated for 2 h. In addition, the naringenin solution (1 mM, 10 μl) was evaluated in human systems I and II as above.
The incubated solution (500 μl) of systems I-rat, II-rat, III-rat, I-human, and II-human were extracted with ethyl acetate (500 μl) for at least 3 min by vortexing and centrifuged for 10 min at 13,000 rpm and 4°C. The extraction process described above was performed twice and all supernatants were transferred into centrifuge tubes, dried with N2, and dissolved with methanol-water (1:1, v/v). All samples were injected into a UPLC/Q-TOF-MS system consisting of a Waters Acquity ultra performance liquid chromatography (UPLC) coupled with a Micromass micro™ quadrupole time-of-flight mass spectrometry (Q-TOF-MS) system (Waters Corp., Milford, MA, USA), equipped with an electrospray ionization source, and controlled by the MassLynx (v. 4.1) software. Separation was performed on a Waters Acquity UPLC BEH C18 column (50 mm × 2.1 mm, 1.7 μm) at 40°C. The mobile phase consisted of 0.1% formic acid (v/v) in water (A) and methanol (B) using a linear gradient of 95% to 60% A (0–25 min), 60% to 40% A (25–35 min), 40% to 10% A (35–40 min), 10% A (40–43 min), 10% to 95% A (43–44 min), and 95% A (44–45 min). The injection volume was 5 μl with flow rate of 0.2 ml min^-1. The Q-TOF-MS worked in a full scan mode (100–1,200 m/z), selection ion mode, and product ion mode, in negative ion mode, respectively. The conditions were as follows: capillary voltage 3,000 V, sample cone voltage 30 V, extraction cone voltage 2.0 V, source temperature 100°C, desolvation temperature 350°C, cone gas (N2) flow rate of 40 L/h, desolvation gas (N2) flow rate of 700 L/h, low collision energy 6.0 eV, and high collision energy 20–80 eV. Compounds were detected with accurate mass using leucine enkephalin for mass correction at 554.2615 (m/z) in negative ionization mode.

[5] = Stability of naringin and naringenin in human feces with active enzymes; format: in vitro ADME; settings: human feces in normal saline, 37°C for 12 h (over night)
Procedure: Next, 9-fold normal saline, instead of ninefold methanol-normal saline (2:1, v/v), was added to maintain enzyme activity in the feces. […] These samples were maintained at 37°C for 12 h.

SMILES	toxicity after a single p.o. bolus dose [1]	metabolites the enzyme is responsible for (CYP 2C9)	metabolites the enzyme contributes to (CYP 2C19)	metabolites the enzyme contributes to (CYP 1A2)	metabolites the enzyme contributes to (CYP 3A4/5)	adverse effects in toxicity study [2]	found in rat kidney microsomes, incubation of G/S [3]	found in human liver microsomes, incubation of naringenin (S) [4]	amount detected in feces relative to the amount added [5]
C[C@@H]1O[C@@H](O[C@H]2[C@H](Oc3cc(O)c4c(c3)O[C@H](c3ccc(O)cc3)CC4=O)O[C@H](CO)[C@@H](O)[C@@H]2O)[C@H](O)[C@H](O)[C@H]1O [naringin, Naringin]	no apparent toxicity	six metabolites	four metabolites	one metabolite	two metabolites	no adverse effects			
O=C1C[C@@H](c2ccc(O)cc2)Oc2cc(O)cc(O)c21 [naringenin, Naringenin]							+	+	less than 20%
